Where two headings read alike, the source gives them in different places.
Legend:
[1] = set-up: method as in PMID 17337512; conditions: monkeys ref 14; cited from earlier work
[2] = target: T1, P-glycoprotein (P-gp) (Homo sapiens, UniProt P08183); assay: Bidirectional transport of rhodamine123 through Caco-2 monolayers co-incubated with antimalarials (P-gp inhibitory properties); format: in vitro ADME
T1 construct: In-vitro Caco-2 cell monolayers were used here as a model for potential drug absorption related problems and P-gp mediated transport of drugs; endogenous in cells; host or cells: Caco-2 (human colon carcinoma, ATCC)
T1 sequence (P08183 whole entry): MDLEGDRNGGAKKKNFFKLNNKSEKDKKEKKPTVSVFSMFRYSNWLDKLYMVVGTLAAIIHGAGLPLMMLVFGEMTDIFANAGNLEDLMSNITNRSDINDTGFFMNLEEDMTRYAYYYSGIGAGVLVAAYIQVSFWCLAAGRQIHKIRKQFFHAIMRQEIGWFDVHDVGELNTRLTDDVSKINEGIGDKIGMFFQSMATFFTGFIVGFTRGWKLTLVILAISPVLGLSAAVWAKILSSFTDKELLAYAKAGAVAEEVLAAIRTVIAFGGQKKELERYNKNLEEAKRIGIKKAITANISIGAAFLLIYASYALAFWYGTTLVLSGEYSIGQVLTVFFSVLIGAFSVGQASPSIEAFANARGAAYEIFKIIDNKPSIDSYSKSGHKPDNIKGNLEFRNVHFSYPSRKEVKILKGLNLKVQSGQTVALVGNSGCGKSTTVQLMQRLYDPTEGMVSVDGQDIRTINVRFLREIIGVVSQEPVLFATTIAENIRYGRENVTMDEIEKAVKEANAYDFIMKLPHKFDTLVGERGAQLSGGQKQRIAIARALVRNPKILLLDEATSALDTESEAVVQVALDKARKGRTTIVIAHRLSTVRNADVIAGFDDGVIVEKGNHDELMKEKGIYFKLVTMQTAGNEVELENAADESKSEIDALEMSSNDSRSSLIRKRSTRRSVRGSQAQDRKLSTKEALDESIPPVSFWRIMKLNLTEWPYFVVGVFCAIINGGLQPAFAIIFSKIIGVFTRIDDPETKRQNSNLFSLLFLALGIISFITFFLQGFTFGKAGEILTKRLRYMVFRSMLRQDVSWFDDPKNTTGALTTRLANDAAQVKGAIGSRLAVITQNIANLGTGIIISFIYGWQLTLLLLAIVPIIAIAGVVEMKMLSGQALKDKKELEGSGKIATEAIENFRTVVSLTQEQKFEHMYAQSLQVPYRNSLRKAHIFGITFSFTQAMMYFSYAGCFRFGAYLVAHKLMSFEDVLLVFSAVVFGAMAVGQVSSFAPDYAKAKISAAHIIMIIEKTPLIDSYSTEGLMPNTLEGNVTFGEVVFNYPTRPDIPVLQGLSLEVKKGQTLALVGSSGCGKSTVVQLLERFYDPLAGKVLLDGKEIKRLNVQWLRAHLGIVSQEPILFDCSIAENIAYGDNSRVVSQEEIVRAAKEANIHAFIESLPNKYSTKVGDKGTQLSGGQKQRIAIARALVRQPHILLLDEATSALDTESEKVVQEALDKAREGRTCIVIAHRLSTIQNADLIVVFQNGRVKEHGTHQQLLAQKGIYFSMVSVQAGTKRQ
Method: The Caco-2 cells were seeded on 0.6 cm^2 […] Millipore PCF™ filter inserts at the cell density of 65,000 cells/cm^2 as done previously in the lab. Briefly, the cells were grown for 21–24 days to allow full maturation and formation of tight monolayers. The initial experiments were conducted in mid-40s passage cells and repeated in early 80s passage Caco-2 cells. The Trans epithelial electrical resistance (TEER) was measured immediately before and after the experiment using an epithelial voltage/ohm meter and an ENDOHM 12 chamber (World precision instruments, Sarasota, FL). TEER values were measured both before and after the study with readings above 300 Ω.cm^2 considered as acceptable for tight junctions. […] In order to maintain equivalent transport medium (HBSS/HBSS with inhibitor) level both outside and inside the chambers, 300 μL was used as medium in the apical chambers and 600 μL in the basolateral chambers. […] Drugs were co-incubated with MRCP, BCRP and ATP hydrolysis blockers to determine the involvement of other efflux mechanisms. Prior to the experiment, the transport medium, HBSS or HBSS with P-gp inhibitors were pre-incubated with the cells for 30 minutes. Following incubation, inserts were placed in new well plates and donor chamber is replaced with drug or drug with inhibitor and the receiver chamber with blank HBSS or HBSS with inhibitor. Transport medium was collected from the receiver chamber after stirring at time intervals of 30, 60, 90 and 120 minutes and was replaced with the same volume of fresh HBSS, or HBSS with inhibitor, when P-gp inhibitors were used in the study. At the end of the experiment 100 μL of medium was removed from the donor chamber in addition to medium collected from the receiver chamber during the study. The cells were then washed thoroughly in cold (4°C) PBS and cell membranes attached to the inserts were sonicated for 10 minutes in a sonicating water bath and centrifuged at 10,000 g for 10 minutes. Supernatant was frozen at -80°C until assayed. The Papp values of three well plates were determined using methods modified from Artursson’s group as described by Crowe and Lemaire.
CL.vol=Aa/{[Cd0×Vd−[Aa+(Ca×Vs)]−(Ac)×n/nfin]/Vd}
CL.vol = clearance volume (mL), n = time (min), Aa = amount in acceptor compartment at time n (pmols), Cd0 = concentration in donor compartment at time zero (nM), Vd = volume of the donor compartment (mL), Ca = concentration in acceptor compartment at the previous time point (nM), Vs = sample volume of previous time point (mL), Ac = amount of compound associated with the cells (pmol), Nfin = final time point (min). Papp = Apparent permeability (cm/sec) Rate of clearance (mL/min)=CL.vol / n Papp (cm/sec)=Rate of clearance / Surface area (cm^2)
The cleared volume was plotted against time and the slope of the regression line was divided by the surface area to obtain the Papp values. […] Mean Papp for Bas-Ap direction was divided by the Ap-Bas direction to obtain the efflux ratio and values above two were considered as drugs having true efflux transport.

[3] = system: Caco-2 cell monolayers; assay: Bidirectional transport (Papp, efflux ratio) of antimalarials through Caco-2 cell monolayers; format: in vitro ADME, human
Method: (§1) The initial experiments were conducted in mid-40s passage cells and repeated in early 80s passage Caco-2 cells. […] In order to maintain equivalent transport medium (HBSS/HBSS with inhibitor) level both outside and inside the chambers, 300 μL was used as medium in the apical chambers and 600 μL in the basolateral chambers. […] Drugs were co-incubated with MRCP, BCRP and ATP hydrolysis blockers to determine the involvement of other efflux mechanisms. Prior to the experiment, the transport medium, HBSS or HBSS with P-gp inhibitors were pre-incubated with the cells for 30 minutes. Following incubation, inserts were placed in new well plates and donor chamber is replaced with drug or drug with inhibitor and the receiver chamber with blank HBSS or HBSS with inhibitor. Transport medium was collected from the receiver chamber after stirring at time intervals of 30, 60, 90 and 120 minutes and was replaced with the same volume of fresh HBSS, or HBSS with inhibitor, when P-gp inhibitors were used in the study. At the end of the experiment 100 μL of medium was removed from the donor chamber in addition to medium collected from the receiver chamber during the study. The cells were then washed thoroughly in cold (4°C) PBS and cell membranes attached to the inserts were sonicated for 10 minutes in a sonicating water bath and centrifuged at 10,000 g for 10 minutes. Supernatant was frozen at -80°C until assayed. […] CL.vol=[…].vol = clearance volume (mL), n = time (min), Aa = amount in acceptor compartment at time n (pmols), Cd0 = concentration in donor compartment at time zero (nM), Vd = volume of the donor compartment (mL), Ca = concentration in acceptor compartment at the previous time point (nM), Vs = sample volume of previous time point (mL), Ac = amount of compound associated with the cells (pmol), Nfin = final time point (min). […] The cleared volume was plotted against time and the slope of the regression line was divided by the surface area to obtain the Papp values. […] The method from Davis and colleagues was adopted with slight modifications. Separations were performed using an Apollo C18 (5 μm, 4.6x150mm) column attached to a matched guard column (5 μm, 4.6x5.5 mm). […] The injection volume was 40 μL and column oven was maintained at 35°C. The analytes were detected at 222 nm and the retention time was 5.6 minutes. Assay developed by Pussard and co-workers were used and slight modifications were done to adjust laboratory conditions. Separation was done using a Prevail C18 (3 μm, 4.6x150mm) column attached to a Direct-connect^TM universal column prefilter. The mobile phase consisted of 20 mM (w/v) KH2PO4 in deionized water at pH 3.0 and acetonitrile (82:18) v/v. […] The injection volume was 40 μL and column oven was maintained at 30°C. The analytes were detected at 343 nm with a retention time of 2.4 minutes. […] Separations were performed using an Apollo C18 (5 μm, 4.6x150mm) column attached to matched guard column (5 μm, 4.6x5.5mm). […] The injection volume was 40 μL and column oven was maintained at 30°C. The analytes were detected at 660 nm with a retention time of 3.8 minutes. A 40 μL sample was spiked with 5 μL 0.5 mM artemisinin internal standard. […] The pipettor was adjusted to the maximum volume (100 μL). […] Pre-treated samples were loaded into the tips by gently aspirating and discarding into the same vial. The process was repeated 10 times in order to increase binding efficiency of drugs to the OMIX 96 C4 matrix. […] The LC-MS method described by […] and co-workers were modified to suit the LC-MS-MS conditions. […] Wexford, Ireland) at 40°C. […] Quantitation was performed in multiple reactions monitoring, MRM mode, using DUIS (ESI^+ and APCI^+) ion sources. […] The optimized mass spectra were acquired with an interface voltage of 4.5 kV, a detector voltage of 1.0 kV, a heat block temperature of 500°C and a desolvation temperature of 160°C.

[4] = as above; format: in vitro ADME, human; conditions: human; for Papp at 120 min: Caco-2, Caco-2 monolayers
Method: as §1

For C[C@H]1[C@H](N2CCS(=O)(=O)CC2)O[C@@H]2O[C@@]3(C)CC[C@H]4[C@H](C)CC[C@@H]1[C@@]24OO3 [AM, artemisone], the in-vivo bioavailability [1] is given as “higher in-vivo bioavailability compared to artesunate”, the P-gp inhibitory properties ([2]; at 100 μM) is given as “did not exhibit P-gp inhibitory properties” and the P-gp inhibitory properties ([2]; at test concentrations) is given as “did not exhibit P-gp inhibitory properties”. The Net flow direction ([3]; Conc (μM) + inhibitor (μM): 10) was “Diffusion (0.25)”, the Net flow direction ([3]; Conc (μM) + inhibitor (μM): 20) was “Diffusion (0.69)” and the “drug absorption predicted from Papp” value ([3]; based on FDA biopharmaceutical classification system) was 100%. The Papp at 120 min ([4]; drug alone, read-out: Ap-Bas directional Papp, range over concentrations tested) was 37 to 60 ×10⁻⁶ cm/s, the Papp at 120 min ([4]; drug alone, read-out: Bas-Ap directional Papp, range over concentrations tested) was 35 to 47 ×10⁻⁶ cm/s and the Papp at 120 min ([4]; read-out: permeability across the gastrointestinal epithelium (class)) was greater than 25 ×10⁻⁶ cm/s. For the same compound, the Papp at 120 min ([4]; summary in abstract, methylene blue depending on the direction of transport, read-out: permeability) was roughly 50 ×10⁻⁶ cm/s, the efflux ratio at 120 min, 10 µM ([4]; Caco-2, Conc (μM) + inhibitor (μM): 10, Bas-Ap divided by Ap-Bas) was 0.8 and the Papp at 120 min, 10 µM ([4]; Caco-2, Conc (μM) + inhibitor (μM): 10, first-named drug measured, read-out: Papp Ap-Bas) was 59.6 ± 4.2 ×10⁻⁶ cm/s. It also gave a Papp B→A at 120 min, 10 µM ([4]; Caco-2, Conc (μM) + inhibitor (μM): 10, first-named drug measured, read-out: Papp Bas-Ap) of 46.9 ± 8.5 ×10⁻⁶ cm/s, an efflux ratio at 120 min, 20 µM ([4]; Caco-2, Conc (μM) + inhibitor (μM): 20, Bas-Ap divided by Ap-Bas) of 0.9 and a Papp at 120 min, 20 µM ([4]; Caco-2, Conc (μM) + inhibitor (μM): 20, first-named drug measured, read-out: Papp Ap-Bas) of 37 ± 4.7 ×10⁻⁶ cm/s. For the same compound, the Papp B→A at 120 min, 20 µM ([4]; Caco-2, Conc (μM) + inhibitor (μM): 20, first-named drug measured, read-out: Papp Bas-Ap) was 34.7 ± 2.7 ×10⁻⁶ cm/s.

From PMC4821601, “The Interactions of P-Glycoprotein with Antimalarial Drugs, Including Substrate Affinity, Inhibition and Regulation” (PLoS ONE, 2016)
